Measurements reported in patent publication US11021457B2, “Class of isoindolone-imide ring-1,3-dione-2-ene compounds, composition and use thereof” (WIGEN BIOMEDICINE TECHNOLOGY (SHANGHAI) CO., LTD., priority 2017, dated 2021).
Where two headings read alike, the source gives them in different places.

What was measured:
[1] = test system: SU-DHL6; assay: Inhibition of tumor cell proliferation, CellTiter-Glo, SU-DHL6; format: cell-based; settings: compound concentration 50 μM, 72 hours
Summary of the method: (§1)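 Luminescent ATP read-out (CellTiter-Glo) after 72 hours gave survival relative to untreated wells, corrected for blank. Activity categories were assigned from survival at 50 μM: ≤30% high, >30-60% moderate, 60-<90% low.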

[2] = test system: RPMI-8226; assay: Inhibition of tumor cell proliferation, CellTiter-Glo, RPMI-8226; format: cell-based; settings: compound concentration 50 μM, 72 hours
Summary of the method: as §1

[3] = test system: K562; assay: Inhibition of tumor cell proliferation, CellTiter-Glo, K562; format: cell-based; settings: compound concentration 50 μM, 72 hours
Summary of the method: as §1

[4] = test system: A549; assay: Inhibition of tumor cell proliferation, CellTiter-Glo, A549; format: cell-based; settings: compound concentration 50 μM, 72 hours
Summary of the method: as §1

[5] = test system: MDA-MB-453; assay: Inhibition of tumor cell proliferation, CellTiter-Glo, MDA-MB-453; format: cell-based; settings: compound concentration 50 μM, 72 hours
Summary of the method: as §1

[6] = test system: BxPC-3; assay: Inhibition of tumor cell proliferation, CellTiter-Glo, BxPC-3; format: cell-based; settings: compound concentration 50 μM, 72 hours
Summary of the method: as §1

[7] = test system: human multiple myeloma RPMI8226 cell xenograft tumor; assay: In-vivo anti-tumor efficacy in multiple myeloma xenograft tumor model (tumor volume, T/C, TGI); set-up: species or system mouse; settings: for Average volume (mm3) Start of the treatment Day 1 / Average volume (mm3) End of the treatment Day 21 / T/C %: QD × 21; for Average volume (mm3) End of the treatment Day 21 / T/C %: Day 21
Description: The in-vivo anti-tumor efficacy of the compound 1, lenalidomide, dexamethasone and a combination of the compound 1 or lenalidomide with dexamethasone in human multiple myeloma RPMI8226 cell xenograft tumor model was evaluated.
(§2) The test animals were female CB17 SCID mice. Human RPMI8226 cells were cultured in RPMI1640 medium containing 10% heat-inactivated fetal bovine serum and 1% penicillin-streptomycin double antibody in an incubator with 5% CO2 at 37° C. When the cells were in an exponential growth phase, the cells were harvested, counted, and subcutaneously inoculated into the right dorsal portion of each mouse. The mice were grouped and administered when the average tumor volume reached about 150 mm^3. Grouping method: the animals were weighed and measured for the tumor volume before administration, and grouped by block design according to the tumor volume.
(§3) Whether the tumor growth could be inhibited, delayed or cured was investigated. The diameter of the tumor was measured by a vernier caliper. The tumor volume was calculated by a formula: V=0.5×a×b^2, in which a and b respectively represent the long diameter and short diameter of the tumor. The anti-tumor effect T/C (%) of the compound was evaluated by a formula: T/C %=TRTV/CRTV×100% (TRTV: RTV of the treatment group; CRTV: RTV of the negative control group). The relative tumor volume RTV was calculated by a formula: RTV=Vt/V0, where V0 is the measured tumor volume at the time of grouping and administration (i.e. day 0), and Vt is the tumor volume at each measurement. T/C (%) reflects the inhibition rate on tumor growth. […] The weight of the mice bearing tumor in each group was recorded and analyzed, as shown in FIGS. 1 and 2 and Table 14, and the effect of the compound on the tumor volume of the mice bearing tumor is shown in FIGS. 3 and 4 and Table 15.

[8] = Body weight of tumor-bearing mice in the in-vivo pharmacodynamic test; set-up: species or system mouse; settings: for Average body weight (g) Start of the treatment Day 1 / Average body weight (g) End of the treatment Day 21 / Average RCBW (%)/end of the treatment Day 21: QD × 21; for Average body weight (g) Start of the treatment Day 1 / Average body weight (g) End of the treatment Day 21: x ± SEM; for Average RCBW (%)/end of the treatment Day 21: Day 21 relative to Day 1
Description: as §2, §3

[9] = target: LC3B (Homo sapiens (Human), UniProt Q9GZQ8); assay: Fluorescence polarization experiment targeting LC3B (GST-LC3B with FITC-labeled peptide)
[10] = Compound 1 53 mg/kg + Dexamethasone 1 mg/kg
[11] = Compound 1 53 mg/kg p.o + Dexamethasone 1 mg/kg i.p
[12] = GST-LC3B 180 nM, FITC-labeled peptide 18 nM, 25° C.
[13] = Lenalidomide 30 mg/kg + Dexamethasone 1 mg/kg
[14] = Lenalidomide 30 mg/kg p.o, RPMI8226 tumor-bearing mice
[15] = Lenalidomide 30 mg/kg p.o + Dexamethasone 1 mg/kg i.p
[16] = Lenalidomide 30 mg/kg p.o., RPMI8226 tumor-bearing mice

O=C1CCC(N2Cc3c(NC=C4C(=O)CC(c5ccccc5)CC4=O)cccc3C2=O)C(=O)N1 (centres unmarked) [Compound 1]
Inhibitory activity against proliferation (cell survival rate) SU-DHL6 [1]: +++ (survival rate (%)≤30) | Inhibitory activity against proliferation (cell survival rate) RPMI-8226 [2]: +++ (survival rate (%)≤30) | Inhibitory activity against proliferation (cell survival rate) K562 [3]: +++ (survival rate (%)≤30) | Inhibitory activity against proliferation (cell survival rate) A549 [4]: +++ (survival rate (%)≤30) | Inhibitory activity against proliferation (cell survival rate) MDA-MB-453 [5]: ++ (30<survival rate (%)≤60) | Inhibitory activity against proliferation (cell survival rate) BxPC-3 [6]: ++ (30<survival rate (%)≤60) | Tumor inhibition effect ([7]; 17.7 mg/kg, versus lenalidomide 30 mg/kg): comparable to that of lenalidomide | Anti-tumor effect ([7]; 53 mg/kg (same molar dose as lenalidomide)): significantly higher than lenalidomide | Average volume (mm3) Start of the treatment Day 1 ([7]; Compound 1 17.7 mg/kg p.o): 141.27 ± 14.61 mm3 | Average volume (mm3) End of the treatment Day 21 ([7]; Compound 1 17.7 mg/kg p.o): 881.71 ± 175.49 mm3 | T/C % ([7]; Compound 1 17.7 mg/kg p.o): 47.20% | Average volume (mm3) Start of the treatment Day 1 [7, 10]: 141.54 ± 14.27 mm3 | Average volume (mm3) End of the treatment Day 21 [7, 10]: 179.24 ± 48.35 mm3 | T/C % [7, 10]: 9.60% | Average volume (mm3) Start of the treatment Day 1 ([7]; Compound 1 53 mg/kg p.o): 142.38 ± 15.41 mm3 | Average volume (mm3) End of the treatment Day 21 ([7]; Compound 1 53 mg/kg p.o): 674.46 ± 137.82 mm3 | T/C % ([7]; Compound 1 53 mg/kg p.o): 36.11% | Tumor inhibition effect ([7]; in combination with dexamethasone): stronger tumor inhibition effect than lenalidomide | Average body weight (g) Start of the treatment Day 1 ([8]; Compound 1 17.7 mg/kg p.o): 21.60 ± 0.36 g | Average body weight (g) End of the treatment Day 21 ([8]; Compound 1 17.7 mg/kg p.o): 22.49 ± 0.39 g | Average RCBW (%)/end of the treatment Day 21 ([8]; Compound 1 17.7 mg/kg p.o): 4.13% | Average body weight (g) Start of the treatment Day 1 [8, 11]: 21.41 ± 0.32 g | Average body weight (g) End of the treatment Day 21 [8, 11]: 20.46 ± 0.31 g | Average RCBW (%)/end of the treatment Day 21 [8, 11]: −4.46% | Average body weight (g) Start of the treatment Day 1 ([8]; Compound 1 53 mg/kg p.o): 21.15 ± 0.36 g | Average body weight (g) End of the treatment Day 21 ([8]; Compound 1 53 mg/kg p.o): 22.25 ± 0.31 g | Average RCBW (%)/end of the treatment Day 21 ([8]; Compound 1 53 mg/kg p.o): 5.27% | Effect on body weight of tumor-bearing mice ([8]; in combination with dexamethasone, attributed to dexamethasone): weight loss | Effect on body weight of tumor-bearing mice ([8]; throughout the administration period): does not affect the body weight | IC50 [9, 12]: 3 to 15 µM

O=C1CCC(N2Cc3c(NC(=O)CN4CCN(CCNC=C5C(=O)CC(c6ccccc6Br)CC5=O)CC4)cccc3C2=O)C(=O)N1 (centres unmarked) [Compound 157]
cell survival rate (% of control) at 50 µM ([1]; Homo sapiens, SU-DHL-6, read-out: Inhibitory activity against proliferation (cell survival rate) SU-DHL6): ≤ 30% | cell survival rate (% of control) at 50 µM ([2]; Homo sapiens, RPMI-8226, read-out: Inhibitory activity against proliferation (cell survival rate) RPMI-8226): ≤ 30% | cell survival rate (%) at 50 µM ([3]; Homo sapiens, K562, read-out: Inhibitory activity against proliferation (cell survival rate) K562): ≤ 30% | cell survival rate (% of control) at 50 µM ([4]; Homo sapiens, A549, read-out: Inhibitory activity against proliferation (cell survival rate) A549): ≤ 30% | cell survival rate (%) at 50 µM ([5]; Homo sapiens, MDA-MB-453, read-out: Inhibitory activity against proliferation (cell survival rate) MDA-MB-453): 30 to 60% | cell survival rate (%) at 50 µM ([6]; Homo sapiens, BXPC-3, read-out: Inhibitory activity against proliferation (cell survival rate) BxPC-3): 30 to 60% | IC50 [9]: < 3 µM

O=C1CCC(N2Cc3c(NC(=O)CN4CCN(CCNC=C5C(=O)CC(c6c(Cl)ccc(C(F)(F)F)c6Cl)CC5=O)CC4)cccc3C2=O)C(=O)N1 (centres unmarked) [Compound 158]
Inhibitory activity against proliferation (cell survival rate) SU-DHL6 [1]: +++ (survival rate (%)≤30) | Inhibitory activity against proliferation (cell survival rate) RPMI-8226 [2]: ++ (30<survival rate (%)≤60) | Inhibitory activity against proliferation (cell survival rate) K562 [3]: ++ (30<survival rate (%)≤60) | Inhibitory activity against proliferation (cell survival rate) A549 [4]: +++ (survival rate (%)≤30) | Inhibitory activity against proliferation (cell survival rate) MDA-MB-453 [5]: +++ (survival rate (%)≤30) | Inhibitory activity against proliferation (cell survival rate) BxPC-3 [6]: + (60≤survival rate (%)<90) | IC50 [9, 12]: < 3 µM

Nc1cccc2c1CN(C1CCC(=O)NC1=O)C2=O (centres unmarked) [Lenalidomide, reference compound]
Average volume (mm3) Start of the treatment Day 1 [7, 13]: 141.35 ± 15.02 mm3 | Average volume (mm3) End of the treatment Day 21 [7, 13]: 233.72 ± 47.47 mm3 | T/C % [7, 13]: 12.51% | Average volume (mm3) Start of the treatment Day 1 [7, 14]: 140.44 ± 15.82 mm3 | T/C % ([7]; Lenalidomide 30 mg/kg p.o): 49.67% | Average volume (mm3) End of the treatment Day 21 [7, 14]: 927.82 ± 164.85 mm3 | Average body weight (g) Start of the treatment Day 1 [8, 15]: 21.23 ± 0.34 g | Average body weight (g) End of the treatment Day 21 [8, 15]: 20.08 ± 0.25 g | Average RCBW (%)/end of the treatment Day 21 [8, 15]: −5.33% | Average body weight (g) Start of the treatment Day 1 [8, 16]: 21.02 ± 0.23 g | Average body weight (g) End of the treatment Day 21 [8, 16]: 21.90 ± 0.30 g | Average RCBW (%)/end of the treatment Day 21 ([8]; Lenalidomide 30 mg/kg p.o.): 4.18%
